What all share (type): cell-based
In one series the target is T1, chick N-cadherin (Gallus gallus, UniProt P10288).
T1 construct: expressed in transfected cells; host or cells: 3T3 fibroblasts
T1 sequence (P10288 165-912): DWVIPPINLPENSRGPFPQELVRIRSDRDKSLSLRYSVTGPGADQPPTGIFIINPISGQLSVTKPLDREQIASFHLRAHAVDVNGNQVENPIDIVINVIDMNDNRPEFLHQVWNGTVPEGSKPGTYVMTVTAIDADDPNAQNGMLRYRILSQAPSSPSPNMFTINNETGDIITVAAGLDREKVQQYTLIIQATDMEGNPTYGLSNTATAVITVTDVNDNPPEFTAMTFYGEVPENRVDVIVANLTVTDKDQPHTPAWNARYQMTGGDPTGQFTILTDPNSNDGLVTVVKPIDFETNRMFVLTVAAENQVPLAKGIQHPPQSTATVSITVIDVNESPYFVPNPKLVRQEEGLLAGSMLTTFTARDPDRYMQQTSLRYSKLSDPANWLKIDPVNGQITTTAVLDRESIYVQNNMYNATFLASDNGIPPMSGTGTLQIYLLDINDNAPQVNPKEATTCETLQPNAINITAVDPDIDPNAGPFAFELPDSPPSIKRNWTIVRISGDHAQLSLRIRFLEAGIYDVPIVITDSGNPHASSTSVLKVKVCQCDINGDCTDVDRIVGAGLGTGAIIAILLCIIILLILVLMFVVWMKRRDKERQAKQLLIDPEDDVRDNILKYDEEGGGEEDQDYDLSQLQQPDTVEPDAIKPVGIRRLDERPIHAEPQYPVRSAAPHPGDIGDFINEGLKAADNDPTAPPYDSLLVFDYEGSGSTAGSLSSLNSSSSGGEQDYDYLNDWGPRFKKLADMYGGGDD
In words: N-cadherin dependent neurite outgrowth of rat cerebellar neurons on N-cadherin expressing 3T3 cells (Example 14). Particulars: for inhibition at 250 µg/mL: NIH3T3, 250 μg/mL, 16-18 hours; for inhibitory activity on N-cadherin dependent neurite outgrowth, in words: Tables 8 and 9, 250 or 125 μg/mL; for activity on N-cadherin dependent neurite outgrowth at lower concentration, in words: concentrations of 125 µg/mL or below; for reduction in inhibitory activity on flanking HAV with E-cadherin amino acids: Table 8, 250 μg/mL. As for the experimental part: Cell culture and neurite outgrowth assays. Co-cultures of cerebellar neurons on monolayers of control 3T3 cells and monolayers of transfected 3T3 cells that express physiological levels of chick N-cadherin or human L1 were established as previously described (Williams et al., Neuron 13:583-594, 1994). In brief, 80,000 3T3 cells (control and transfected) were plated into individual chambers of an eight-chamber tissue culture slide coated with polylysine and fibronectin and cultured in DMEM/10% FCS. After 24 hours, when confluent monolayers had formed, the medium was removed and 3000 cerebellar neurons isolated from post-natal day 2-3 rats were plated into each well in SATO media (Doherty et al., Nature 343:464-466, 1990) supplemented with 2% FCS. All of the test peptides were added immediately before the neurons as a 2×stock prepared in SATO/2% FCS. The co-cultures were maintained for 16-18 hours, at which time they were fixed and immunostained for GAP-43 which is present only in the neurons and delineates the neuritic processes. The mean length of the longest neurite per cell was measured for 150-200 neurons sampled in replicate cultures as previously described (Williams et al., Neuron 13:583-594, 1994). […] Dose-response curves were evaluated and the EC50 values determined.
Effects of cyclic HAV peptides on N-cadherin function. The ability of N-Ac-CHAVC-NH2 (SEQ ID NO:10; compound 1) to inhibit neurite outgrowth was initially tested. This cyclic peptide has the cadherin CAR sequence (HAV) and no flanking amino acid residues. Neurons were cultured on confluent monolayers of control (untransfected) and N-cadherin expressing 3T3 cells for 16-18 hours. The cells were then fixed and the length of the longest neurite on 150-200 neurons was determined by standard assay, as described above. FIG. 24 gives the mean neurite length in a representative experiment where cerebellar neurons have been cultured over control and N-cadherin expressing cells. In the absence of peptide, the mean length of the longest neurite per cell was approximately double on the N-cadherin expressing cells, as compared to 3T3 cells. This response requires N-cadherin function in both the neuron and transfected fibroblast.

The nature of series [1]: in vitro. The settings on record: human. As for the experimental part:
(§1) N-Ac-CHAVC-NH2 (SEQ ID NO:10) and the control peptide N-Ac-CHGVC-NH2 (SEQ ID NO:20) were evaluated for possible cytotoxic effects on human microvascular endothelial (HMVEC; Clonetics), human umbilical vein endothelial (HUVEC; ATCC #CRL-1730), IAFp2 (human fibroblast cell line; Institute Armand-Frapier, Montreal, Quebec), WI-38 (human fibroblast cell line; ATCC #CCL-75), MDA-MB231 (human breast cancer cell line; ATCC #HTB-26), and PC-3 (human prostate cancer cell line; ATCC #CRL-1435) cells utilizing the MTT assay (Plumb et al., Cancer Res. 49:4435-4440, 1989). Neither of the peptides was cytotoxic at concentrations up to and including 100 μM. Similarly, neither of the peptides was capable of inhibiting the proliferation of the above cell lines at concentrations up to 100 μM, as judged by ^3H-thymidine incorporation assays.

Series [2] can be described thus: in vitro. Particulars: human. As for the experimental part: as §1
The source holds these as a separate data set.

Series [3] is described as follows: in vitro. The settings on record: human. As for the experimental part:
as §1
This is another data set of the same source.

Series [4] in a line: in vitro. Particulars: human. As for the experimental part:
as §1
This is another data set of the same source.

We go through 13 molecules from patent US20030224978A1, “Compounds and methods for modulating apoptosis” (McGill University, priority 1996, published 2003).

What is called inhibition is the relative decrease from the control value, in per cent. The term IC50 denotes the concentration that gives 50% inhibition. A low value points to greater potency in that assay. In general, EC50 refers to the midpoint of the concentration-response curve. Read a low EC50 as higher potency in that assay.

Entries after “also recorded” stand apart in the source; their conditions may differ. Positions of bridges follow the written chain, without caps; N, C: chain ends. Residues, ends and D or L forms follow the SMILES beside them. Some results are limits rather than exact numbers.

`CC[C@H](C)[C@@H]1NC(=O)[C@H](CC(=O)O)NC(=O)[C@H](C(C)C)NC(=O)[C@H](C)NC(=O)[C@H](Cc2c[nH]cn2)NC(=O)[C@H](C)NC(=O)[C@@H](N)CSSC[C@@H](C(N)=O)NC1=O` (H-CAHAVDIC-NH2; disulfide 1-8): the inhibition at 250 µg/mL at chick N-cadherin is -3.7 ± 2.9%. Besides, the “inhibitory activity on N-cadherin dependent neurite outgrowth, in words” value (“inhibitory activity … in words” below) against chick N-cadherin is on record as “total loss of activity”; at chick N-cadherin (listed as compound 15) it was “lost activity”. Also, the IC50 in the series “in vitro [1]”, in “in vitro [2]”, in “in vitro [3]” and in “in vitro [4]” was more than 100 µM each time.

As for `CC(C)[C@@H]1NC(=O)[C@H](C)NC(=O)[C@H](Cc2c[nH]cn2)NC(=O)[C@H](C)NC(=O)[C@@H](N)CSSC[C@@H](C(N)=O)NC(=O)[C@H](CC(=O)O)NC1=O` [H-CAHAVDC-NH2, H-Cys-Ala-His-Ala-Val-Asp-Cys-NH2] (H-CAHAVDC-NH2; disulfide 1-7), the inhibition at 250 µg/mL against chick N-cadherin was found to be 1.3 ± 13%. For the same molecule, the IC50 in “in vitro [1]”, in the series “in vitro [2]”, in the series “in vitro [3]” and in “in vitro [4]” was more than 100 µM in each case.

As for `CC(C)[C@@H]1NC(=O)CNC(=O)[C@H](Cc2c[nH]cn2)NC(=O)[C@H](C)NC(=O)[C@@H](N)CSSC[C@@H](C(N)=O)NC(=O)[C@H](CC(=O)O)NC1=O` [H-CAHGVDC-NH2, reference compound] (H-CAHGVDC-NH2; disulfide 1-7), the inhibition at 250 µg/mL against chick N-cadherin came to 5.7 ± 7.8%. Besides, the concentration for half-maximal inhibition (IC50) in “in vitro [1]”, in the series “in vitro [2]”, in the series “in vitro [3]” and in the series “in vitro [4]” was more than 100 µM in each case.

With `CC(=O)N[C@H]1CSSC[C@@H](C(N)=O)NC(=O)[C@H](CC(=O)O)NC(=O)[C@H](C(C)C)NC(=O)[C@H](C)NC(=O)[C@H](Cc2cnc[nH]2)NC1=O` [N-Ac-CHAVDC-NH2] (Ac-CHAVDC-NH2; disulfide 1-6), the 50% effective concentration (EC50) at chick N-cadherin (from dose-response curve) turned out to be 93 µM.

Consider `CC(=O)N[C@H]1CSSC[C@@H](C(N)=O)NC(=O)[C@H](CO)NC(=O)[C@H](C(C)C)NC(=O)CNC(=O)[C@H](Cc2c[nH]cn2)NC1=O` [N-Ac-CHGVSC-NH2, reference compound] (Ac-CHGVSC-NH2; disulfide 1-6), for which, at chick N-cadherin, the inhibition at 250 µg/mL was -6.7 ± 5.8%. Further, the IC50 in “in vitro [1]”, in “in vitro [2]”, in “in vitro [3]” and in “in vitro [4]” was more than 100 µM each time.

Regarding `CC(=O)N[C@H]1CSSC[C@@H](C(N)=O)NC(=O)[C@H](Cc2c[nH]cn2)NC(=O)CNC(=O)[C@H](C(C)C)NC1=O` [N-Ac-CVGHC-NH2, reference compound] (Ac-CVGHC-NH2; disulfide 1-5 (inferred)), the half-maximal inhibitory concentration (IC50) in the series “in vitro [1]”, in the series “in vitro [2]”, in the series “in vitro [3]” and in “in vitro [4]” was more than 100 µM each time.

On to “N-Ac-CAHAVC-NH2 (disulfide 1-6 (inferred))”, for which, in the series with chick N-cadherin, the “activity on N-cadherin dependent neurite outgrowth at lower concentration, in words” value was “lost activity”.

Consider “N-Ac-CHAVDINGC-NH2 (disulfide 1-9 (inferred))”, for which the “inhibitory activity … in words” value in the series with chick N-cadherin was “completely abrogates activity”.

Turning to “N-Ac-CHAVSSC-NH2 (disulfide 1-7 (inferred))”, the “reduction in inhibitory activity on flanking HAV with E-cadherin amino acids” value in the series with chick N-cadherin is listed as “substantial”.

As to “N-Ac-CLRAHAVC-NH2 (disulfide 1-8 (inferred))”, in the series with chick N-cadherin, the “inhibitory activity … in words” value is “detrimental affect”.

For the molecule “N-Ac-CLRAHAVDC-NH2 (disulfide 1-9 (inferred))”, in the series with chick N-cadherin, the “inhibitory activity … in words” value was “potent inhibitors of neurite outgrowth; also recorded: partial recovery of activity” and the “activity on N-cadherin dependent neurite outgrowth at lower concentration, in words” value was “lost activity”.

With “N-Ac-CRAHAVDC-NH2 (disulfide 1-8 (inferred))”, the “inhibitory activity … in words” value with chick N-cadherin was “completely eliminated inhibitory activity”.

Turning to “N-Ac-CSHAVSC-NH2 (disulfide 1-7 (inferred))”, in the series with chick N-cadherin, the “reduction in inhibitory activity on flanking HAV with E-cadherin amino acids” value is “complete”.
